This is an account of results in article PMC5829263, “Homoarginine and inhibition of human arginase activity: kinetic characterization and biological relevance” (Scientific Reports, 2018).

Entries after “also recorded” stand apart in the source; their conditions may differ. Like-named read-outs stand apart in the source and are kept apart here.

The target of assay [1] is T1, recombinant human arginase 1 (Homo sapiens, UniProt P05089).
T1 sequence (P05089 1-322): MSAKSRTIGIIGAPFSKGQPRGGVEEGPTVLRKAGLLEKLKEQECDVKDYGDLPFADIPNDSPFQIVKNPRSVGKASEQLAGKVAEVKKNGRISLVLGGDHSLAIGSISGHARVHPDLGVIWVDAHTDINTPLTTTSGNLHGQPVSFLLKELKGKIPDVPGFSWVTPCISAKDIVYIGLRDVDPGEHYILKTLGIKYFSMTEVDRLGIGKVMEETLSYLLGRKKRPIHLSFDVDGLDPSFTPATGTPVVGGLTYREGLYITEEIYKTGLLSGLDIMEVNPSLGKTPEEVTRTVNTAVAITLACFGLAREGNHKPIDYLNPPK
The experiment in a line: Arginase 1 inhibition, UPLC-MS measurement of ARG to ORN conversion in HEK293T cell lysate.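 For all read-outs here: arginase 1–expressing HEK293T lysate at 0.05 mg/mL in pH 7.4 phosphate buffer, inhibitor preincubated 5 min with enzyme, then reaction started by adding ARG.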 Particulars: for % of control activity at the corresponding [Inhibitor] ± SE: arginase 1; for % of control activity at the corresponding [Inhibitor] ± SE / remaining activity at 1 µM / remaining activity at 10 µM / remaining activity at 100 µM / remaining activity at 1000 µM / remaining activity at 10000 µM / remaining activity at 0.1 µM: mean of two experiments; for arginase 1 inhibitor assessment in words: at the concentrations tested, both ARG concentrations; for remaining activity at 1 µM / remaining activity at 10 µM / remaining activity at 100 µM / remaining activity at 1000 µM / remaining activity at 10000 µM / remaining activity at 0.1 µM: read-out: % of control activity at the corresponding [Inhibitor] ± SE, arginase 1; for remaining activity at 10000 µM: inhibitor 10,000 µM.
Description: (§1) Following a 5-min pre-equilibration period reactions were initiated by the addition of the cell lysate solution in 0.05 M phosphate buffer to a pre-equilibrated aqueous solution of the substrate (ARG).
(§2) The samples were vortex mixed (20 sec) and cooled in an ice/water bath for 10 min prior to centrifugation (5 min, 18,000 × g, room temperature) to precipitate the proteins. An aliquot of the supernatant layer was diluted with a 7:3 mobile phase A/mobile phase B solution into glass UPLC vial inserts.
(§3) Incubation mixtures comprised of HEK293T cell lysate expressing arginase 1 (0.05 mg/mL) or arginase 2 (0.1 mg/mL), phosphate buffer (0.05 M, pH 7.4), inhibitor (0, 0.1, 1, 10, 100, 1000 or 10000 μM) and ARG (0.1, 2 or 3 mM). Following a 5-min pre-incubation of the potential inhibitor with arginase 1 or arginase 2, reactions were initiated by the addition of a pre-equilibrated solution of the substrate ARG.
Ki values were derived from fitting the competitive inhibition equation to experimental data. Ki data are the mean of three singlicate experiments.

Assay [2] deals with T2, recombinant human arginase 2 (Homo sapiens, UniProt P78540).
T2 sequence (P78540 23-354): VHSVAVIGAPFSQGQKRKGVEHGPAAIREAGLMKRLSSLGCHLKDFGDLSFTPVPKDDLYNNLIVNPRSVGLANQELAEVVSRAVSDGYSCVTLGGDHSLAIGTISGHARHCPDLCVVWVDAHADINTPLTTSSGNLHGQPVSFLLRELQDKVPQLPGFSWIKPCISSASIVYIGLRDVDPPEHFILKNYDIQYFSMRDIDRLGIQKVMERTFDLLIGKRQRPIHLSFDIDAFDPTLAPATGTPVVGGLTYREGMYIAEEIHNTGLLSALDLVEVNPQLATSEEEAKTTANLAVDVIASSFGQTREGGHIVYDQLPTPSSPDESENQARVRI
Description: Arginase 2 inhibition, UPLC-MS measurement of ARG to ORN conversion in HEK293T cell lysate.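 For all read-outs here: HEK293T lysate carrying arginase 2 at 0.1 mg/mL in 0.05 M phosphate buffer pH 7.4, inhibitor preincubated with enzyme 5 min before ARG addition started the reaction.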 As to conditions: for % of control activity at the corresponding [Inhibitor] ± SE: arginase 2; for % of control activity at the corresponding [Inhibitor] ± SE / remaining activity at 1 µM / remaining activity at 10 µM / remaining activity at 100 µM / remaining activity at 1000 µM / remaining activity at 10000 µM / remaining activity at 0.1 µM: mean of two experiments; for arginase 2 inhibitor assessment in words: at the concentrations tested; for remaining activity at 1 µM / remaining activity at 10 µM / remaining activity at 100 µM / remaining activity at 1000 µM / remaining activity at 10000 µM / remaining activity at 0.1 µM: read-out: % of control activity at the corresponding [Inhibitor] ± SE, arginase 2; for remaining activity at 10000 µM: inhibitor 10,000 µM.
Description: as §1, §2, §3
Sample were diluted 3:17 in mobile phase solution prior injection.

For `CN(C)C(N)=NCCC[C@H](N)C(=O)O` [ADMA, asymmetric dimethylarginine], the “% of control activity at the corresponding [Inhibitor] ± SE” value (from here on “% of control activity … [Inhibitor] ± SE”) in assay [1] (ARG 100 µM, inhibitor 0.1 µM) was determined as 102 ± 9%; in assay [1] (ARG 100 µM, inhibitor 1 µM) it was 109 ± 4%; in assay [1] (ARG 100 µM, inhibitor 10 µM), 120 ± 12%; in assay [1] (ARG 100 µM, inhibitor 100 µM) it was 109 ± 8%; in assay [1] (ARG 100 µM, inhibitor 1,000 µM), 87 ± 1%; in assay [1] (ARG 3 mM, inhibitor 0.1 µM), 98 ± 7%. Also, the “% of control activity … [Inhibitor] ± SE” value in assay [1] (ARG 3 mM, inhibitor 1 µM) is 89 ± 2%; in assay [1] (ARG 3 mM, inhibitor 10 µM) it was 90 ± 1%; in assay [1] (ARG 3 mM, inhibitor 100 µM), 86 ± 4%; in assay [1] (ARG 3 mM, inhibitor 1,000 µM) it was 69 ± 4%; in assay [2] (ARG 100 µM, inhibitor 0.1 µM) it was 115 ± 7%; in assay [2] (ARG 100 µM, inhibitor 1 µM) it was 112 ± 13%. The “% of control activity … [Inhibitor] ± SE” value in assay [2] (ARG 100 µM, inhibitor 10 µM) came out at 109 ± 9%; in assay [2] (ARG 100 µM, inhibitor 100 µM), 94 ± 14%; in assay [2] (ARG 100 µM, inhibitor 1,000 µM), 104 ± 3%; in assay [2] (ARG 2 mM, inhibitor 0.1 µM), 80 ± 7%; in assay [2] (ARG 2 mM, inhibitor 1 µM) it was 84 ± 12%; in assay [2] (ARG 2 mM, inhibitor 10 µM) it was 92 ± 12%. The “% of control activity … [Inhibitor] ± SE” value in assay [2] (ARG 2 mM, inhibitor 100 µM) turned out to be 90 ± 14%; in assay [2] (ARG 2 mM, inhibitor 1,000 µM), 87 ± 15%. Moreover, the “arginase 1 inhibitor assessment in words” value in assay [1] was “poor arginase 1 inhibitors”. In addition, the “arginase 2 inhibitor assessment in words” value in assay [2] is reported as “poor arginase inhibitors”.
As for `NCCCCN=C(N)N` [AG, agmatine], the “arginase 1 inhibitor assessment in words” value in assay [1] is “poor arginase 1 inhibitors; also recorded: no significant inhibition”. The remaining activity at 1 µM in assay [1] (ARG 100 µM, inhibitor 1 µM) was 94 ± 7%; in assay [1] (ARG 3 mM, inhibitor 1 µM) it was 84 ± 13%; in assay [2] (ARG 100 µM, inhibitor 1 µM), 103 ± 4%; in assay [2] (ARG 2 mM, inhibitor 1 µM), 104 ± 4%. The remaining activity at 10 µM came out at 82 ± 5% in assay [1] (ARG 100 µM, inhibitor 10 µM); 100 ± 3% in assay [1] (ARG 3 mM, inhibitor 10 µM); 98 ± 7% in assay [2] (ARG 100 µM, inhibitor 10 µM); 96 ± 3% in assay [2] (ARG 2 mM, inhibitor 10 µM). The remaining activity at 100 µM was 110 ± 24% in assay [1] (ARG 100 µM, inhibitor 100 µM); 100 ± 8% in assay [1] (ARG 3 mM, inhibitor 100 µM); 92 ± 6% in assay [2] (ARG 100 µM, inhibitor 100 µM); 103 ± 3% in assay [2] (ARG 2 mM, inhibitor 100 µM). The remaining activity at 1000 µM in assay [1] (ARG 100 µM, inhibitor 1,000 µM) amounted to 84 ± 8%; in assay [1] (ARG 3 mM, inhibitor 1,000 µM), 98 ± 13%; in assay [2] (ARG 100 µM, inhibitor 1,000 µM), 78 ± 5%; in assay [2] (ARG 2 mM, inhibitor 1,000 µM), 96 ± 3%. Also, the remaining activity at 10000 µM stood at 72 ± 3% in assay [1] (ARG 100 µM), 78 ± 7% in assay [1] (ARG 3 mM), 58 ± 1% in assay [2] (ARG 100 µM) and 87 ± 8% in assay [2] (ARG 2 mM). For the same compound, in assay [2], the “arginase 2 inhibitor assessment in words” value is on record as “poor inhibitors; also recorded: no significant inhibition”.
Take `[H]/N=C(/NC)NCCC[C@H](N)C(=O)O` [L-NMMA, NG-Monomethyl-L-arginine]: the remaining activity at 0.1 µM is 95 ± 2% in assay [1] (ARG 100 µM, inhibitor 0.1 µM); 106 ± 15% in assay [1] (ARG 3 mM, inhibitor 0.1 µM); 101 ± 1% in assay [2] (ARG 100 µM, inhibitor 0.1 µM); 96 ± 7% in assay [2] (ARG 2 mM, inhibitor 0.1 µM). For the same compound, the remaining activity at 1 µM came out at 91 ± 6% in assay [1] (ARG 100 µM, inhibitor 1 µM); 107 ± 11% in assay [1] (ARG 3 mM, inhibitor 1 µM); 103 ± 2% in assay [2] (ARG 100 µM, inhibitor 1 µM); 105 ± 4% in assay [2] (ARG 2 mM, inhibitor 1 µM). Moreover, the remaining activity at 10 µM in assay [1] (ARG 100 µM, inhibitor 10 µM) amounted to 104 ± 11%; in assay [1] (ARG 3 mM, inhibitor 10 µM) it was 95 ± 9%; in assay [2] (ARG 100 µM, inhibitor 10 µM) it was 106 ± 1%; in assay [2] (ARG 2 mM, inhibitor 10 µM), 109 ± 8%. In addition, the remaining activity at 100 µM in assay [1] (ARG 100 µM, inhibitor 100 µM) was 95 ± 6%; in assay [1] (ARG 3 mM, inhibitor 100 µM), 94 ± 8%; in assay [2] (ARG 100 µM, inhibitor 100 µM), 106 ± 9%; in assay [2] (ARG 2 mM, inhibitor 100 µM), 104 ± 3%. Moreover, the remaining activity at 1000 µM came out at 116 ± 1% in assay [1] (ARG 100 µM, inhibitor 1,000 µM); 97 ± 11% in assay [1] (ARG 3 mM, inhibitor 1,000 µM); 111 ± 4% in assay [2] (ARG 100 µM, inhibitor 1,000 µM); 118 ± 4% in assay [2] (ARG 2 mM, inhibitor 1,000 µM).
`O=C(O)[C@@H]1CCCN1` [PRO, proline]: in assay [1], the “arginase 1 inhibitor assessment in words” value is listed as “poor arginase 1 inhibitors; also recorded: no significant inhibition”. Moreover, the remaining activity at 1 µM is 115 ± 1% in assay [1] (ARG 100 µM, inhibitor 1 µM); 100 ± 1% in assay [1] (ARG 3 mM, inhibitor 1 µM); 92 ± 10% in assay [2] (ARG 100 µM, inhibitor 1 µM); 98 ± 1% in assay [2] (ARG 2 mM, inhibitor 1 µM). Besides, the remaining activity at 10 µM amounted to 110 ± 1% in assay [1] (ARG 100 µM, inhibitor 10 µM); 113 ± 26% in assay [1] (ARG 3 mM, inhibitor 10 µM); 99 ± 1% in assay [2] (ARG 100 µM, inhibitor 10 µM); 97 ± 7% in assay [2] (ARG 2 mM, inhibitor 10 µM). The remaining activity at 100 µM in assay [1] (ARG 100 µM, inhibitor 100 µM) was 110 ± 6%; in assay [1] (ARG 3 mM, inhibitor 100 µM), 106 ± 19%; in assay [2] (ARG 100 µM, inhibitor 100 µM) it was 99 ± 2%; in assay [2] (ARG 2 mM, inhibitor 100 µM), 96 ± 12%. Besides, the remaining activity at 1000 µM was 104 ± 3% in assay [1] (ARG 100 µM, inhibitor 1,000 µM); 100 ± 17% in assay [1] (ARG 3 mM, inhibitor 1,000 µM); 92 ± 7% in assay [2] (ARG 100 µM, inhibitor 1,000 µM); 98 ± 10% in assay [2] (ARG 2 mM, inhibitor 1,000 µM). Further, the remaining activity at 10000 µM in assay [1] (ARG 100 µM) stood at 54 ± 7%; in assay [1] (ARG 3 mM), 79 ± 20%; in assay [2] (ARG 100 µM), 77 ± 16%; in assay [2] (ARG 2 mM) it was 75 ± 8%. Further, in assay [2], the “arginase 2 inhibitor assessment in words” value is recorded as “poor inhibitors; also recorded: no significant inhibition”.
